Assay [1] relates to Acinetobacter baumannii. The assay is described as follows: Antibacterial activity against Acinetobacter baumannii AB-5075 assessed as reduction in bacterial growth incubated for 18 to 24 hrs by broth micro-dilution assay. In kind it is functional, organism-based. (In general: Dilution methods test growth across graded concentrations, often in twofold steps.)
In assay [2] the test system is Staphylococcus aureus. The assay is described as follows: Antibacterial activity against Staphylococcus aureus assessed as reduction in microbial growth. Type of assay: functional.
Assay [3] concerns Acinetobacter baumannii. The assay is described as follows: Antibacterial activity against Acinetobacter baumannii ATCC 17978 assessed as reduction in microbial growth incubated for 24 hrs Mueller-Hintorn broth dilution method. Type of assay: functional, organism-based. The note with it: ATCC 17978, 24 h.
The test system of assay [4] is Acinetobacter baumannii. The assay is described as follows: Synergistic antibacterial activity against Acinetobacter baumannii assessed as inhibition of bacterial growth incubated for 18 to 24 hrs by Checkerboard assay relative to control. In kind it is functional. Also on record: scale not given: the % may be the effect or the level left. To be noted: time 18-24 hrs.

Assay [5] relates to Acinetobacter baumannii. The assay is described as follows: Antibacterial activity against Acinetobacter baumannii. In kind it is functional.
Assay [6] concerns Acinetobacter baumannii. The assay is described as follows: Antibacterial activity against Acinetobacter baumannii assessed as zone of inhibition. Type of assay: functional.
The test system of assay [7] is Acinetobacter baumannii. The assay is described as follows: Bactericidal activity against Acinetobacter baumannii. In kind it is functional.
For another assay, the target named is DNA gyrase (Escherichia coli, UniProt P0AES4+P0AES6). The assay is described as follows: Inhibition of Escherichia coli DNA gyrase. Type of assay: protein-complex assay.
Assay [8] relates to Acinetobacter baumannii. The assay is described as follows: Antibacterial activity against Acinetobacter baumannii ATCC 17978 assessed as reduction in bacterial growth incubated for 24 hrs by broth dilution assay. In kind it is functional.
Assay [9] concerns Acinetobacter baumannii. The assay is described as follows: Antibacterial activity against Acinetobacter baumannii ATCC 17978 assessed as inhibition of bacterial growth incubated for 18 to 20 hrs by two fold serial dilution assay. Type of assay: functional. To be noted: time 18-20 hrs.
The test system of assay [10] is Acinetobacter baumannii. The assay is described as follows: Antibacterial activity against multidrug-resistant Acinetobacter baumannii ATCC 17978 assessed as reduction in bacterial growth incubated for 24 hrs by micro-broth dilution method. In kind it is functional.
In assay [11] the test system is Acinetobacter baumannii. The assay is described as follows: Antibacterial activity against Acinetobacter baumannii ATCC 17978 assessed as reduction in bacterial growth incubated for 24 hrs by micro-broth dilution method. Type of assay: functional.
Assay [12] concerns Acinetobacter baumannii. The assay is described as follows: Antibacterial activity against Acinetobacter baumannii ATCC 17978 assessed as bacterial eradication. Type of assay: functional.
In a further assay the test system is Escherichia coli. The assay is described as follows: Antibacterial activity against Escherichia coli. In kind it is functional.
The test system of assay [13] is Acinetobacter baumannii. The assay is described as follows: Antibacterial activity against multidrug-resistant Acinetobacter baumannii assessed as inhibition of bacterial growth incubated for 24 hrs by broth dilution assay. Type of assay: functional.
The test system of the next assay is Klebsiella pneumoniae. The assay is described as follows: Antibacterial activity against Klebsiella pneumoniae. In kind it is functional.
In assay [14] the test system is Staphylococcus aureus. The assay is described as follows: Antibacterial activity against Staphylococcus aureus. Type of assay: functional.
In assay [15] the test system is Acinetobacter baumannii. The assay is described as follows: Synergistic antibacterial activity against Acinetobacter baumannii clinical isolates assessed as inhibition of bacterial growth incubated for 18 to 24 hrs by Checkerboard assay relative to control. The note with it: time 18-24 hrs. Also on record: scale not given: the % may be the effect or the level left. Type of assay: functional.

The test system of assay [16] is Acinetobacter baumannii. The assay is described as follows: Antibacterial activity against Acinetobacter baumannii BAA-1605 assessed as reduction in microbial growth incubated for 24 hrs by broth micro-dilution method. In kind it is functional.
Assay [17] relates to Acinetobacter baumannii. The assay is described as follows: Antibacterial activity against Acinetobacter baumannii ATCC 17978 assessed as reduction in microbial growth. In kind it is functional.

This is an account of results in ChEMBL document CHEMBL6109037, “Understanding the mechanisms of antimicrobial resistance and potential therapeutic approaches against the Gram-negative pathogen Acinetobacter baumannii” (RSC Med Chem, 2024).

≈ marks a conversion by molar mass, not a printed value.

On to `O=c1[nH]cc(F)c(=O)[nH]1` [FLUOROURACIL], for which the half-maximal inhibitory concentration (IC50) in the assay with Acinetobacter baumannii [1] was determined as 1800 nM.
Turning to `Cn1cnc2c3c(Cl)c4ccccc4nc3ccc21`, in the assay on Staphylococcus aureus [2], the MBC turned out to be 2 µg/mL.
As to `O=C1NC2(CCC3(CC2)OCCO3)NN1c1ccc(Cl)cc1`, in the assay on Acinetobacter baumannii [3], the IC50 turned out to be 10800 nM.
`CC1(C)[C@H](C(=O)O)N2C(=O)C[C@H]2S1(=O)=O` [SULBACTAM]: in the assay with Acinetobacter baumannii [4], the Activity is listed as about 70%.
In the assay with Acinetobacter baumannii [5], `O=C(O)c1ccc(-n2cc(/C=N/Nc3ccc(F)cc3)c(-c3ccccc3)n2)cc1` displayed an MIC of 8 µg/mL (≈ 20 µM).
Same read-out and setting: the value for `Oc1cccc(/C=N/Nc2ccccn2)c1O` was 25 µg/mL (≈ 109 µM).
For the compound `O=C(O)c1ccc(-n2cc(/C=N/Nc3ccccc3)c(-c3ccccc3)n2)cc1`, the “inhibition zone (IZ)” value with Acinetobacter baumannii [6] was 28 mm.
Take H-RWKIFKKIPKFLHSAKKW-NH2: the MIC in the assay on Acinetobacter baumannii [7] is 4 µg/mL.
In the assay with Acinetobacter baumannii [5], `Cc1[nH]c(C(=O)Nc2nc3cc(NCc4ccccc4)c(C(=O)O)cc3s2)c(Cl)c1Cl` displayed a minimum inhibitory concentration (MIC) of 8 µg/mL (≈ 16.8 µM). In addition, the IC50 on DNA gyrase was under 71 nM.
As to `CNCC1=CCCN(c2c(F)cn3c(=O)c(C(=O)O)cc(C4CC4)c3c2C)C1`, the MIC in the assay on Acinetobacter baumannii [8] is 0.16 µM (≈ 0.0617 µg/mL).
In the case of `Cc1c(N2C[C@@H](N)[C@@H](C)C2)c(F)cn2c(=O)c(C(=O)O)cc(C3CC3)c12`, the minimum inhibitory concentration (MIC) in the assay on Acinetobacter baumannii [9] was determined as 0.09 µg/mL (≈ 0.25 µM).
`CN(C)[C@@H]1C(O)=C(C(N)=O)C(=O)[C@@]2(O)C(O)=C3C(=O)c4c(O)cccc4[C@@](C)(O)[C@H]3C[C@@H]12` [TETRACYCLINE]: in the assay with Acinetobacter baumannii [1], the IC50 was 40 nM.
As to `CN(C)CCCN1c2ccccc2Sc2ccc(Cl)cc21` [CHLORPROMAZINE], the MIC in the assay with Acinetobacter baumannii [10] and in the assay on Acinetobacter baumannii [11] was 100 µg/mL (≈ 314 µM) in each case. Also, in the assay with Acinetobacter baumannii [12], the MBEC turned out to be 0.3 g/L.
Turning to `CC[C@H]1OC(=O)[C@H](C)[C@@H](O[C@H]2C[C@@](C)(OC)[C@@H](O)[C@H](C)O2)[C@H](C)[C@@H](O[C@@H]2O[C@H](C)C[C@H](N(C)C)[C@H]2O)[C@](C)(O)C[C@@H](C)CN(C)[C@H](C)[C@@H](O)[C@]1(C)O` [AZITHROMYCIN], in the assay on Acinetobacter baumannii [1], the IC50 came out at 1100 nM.
In the assay with Escherichia coli, `Cc1c(CN(C)C(=O)/C=C/c2cnc3c(c2)CCC(=O)N3)oc2ccccc12` [AFN-1252] gave a minimum inhibitory concentration (MIC) of over 32 µg/mL.
Take `CN1CCN(CCCN2c3ccccc3Sc3ccc(C(F)(F)F)cc32)CC1` [TRIFLUOPERAZINE]: the minimal inhibitory concentration (MIC) in the assay on Acinetobacter baumannii [10] and with Acinetobacter baumannii [11] was 100 µg/mL (≈ 245 µM) throughout. In addition, the MBEC in the assay on Acinetobacter baumannii [12] is on record as 0.3 g/L.
In the assay with Acinetobacter baumannii [5], `C[C@@H](O)[C@H]1C(=O)N2C(C(=O)O)=C(S[C@@H]3CN[C@H](C(=O)N(C)C)C3)[C@H](C)[C@H]12` [MEROPENEM] returned an MIC of over 8 µg/mL.
For the compound `NNC(=O)CSc1ccc([N+](=O)[O-])cc1Cl`, the IC50 in the assay with Acinetobacter baumannii [3] was found to be 11700 nM.
With `O=C(O)c1ccc(-c2nn(-c3ccc(C(=O)O)cc3)cc2/C=N/Nc2cccc(F)c2)cc1`, in the assay on Acinetobacter baumannii [5], the MIC was 1.56 µg/mL (≈ 3.51 µM).
For `Cc1cc(-n2sc(Cl)c(C)c2=O)ccc1Cl`, in the assay on Acinetobacter baumannii [13], the MIC was found to be 2 µg/mL (≈ 7.29 µM).
Regarding `O=C(O)c1ccc(-n2cc(/C=N/Nc3ccc(Cl)cc3)c(-c3ccccc3)n2)cc1`, the minimum inhibitory concentration (MIC) with Acinetobacter baumannii [5] was found to be 4 µg/mL (≈ 9.6 µM).
As for `Cc1c(CN(C)C(=O)/C=C/c2cnc3c(c2)CC(N)C(=O)N3)oc2ccccc12` (configuration not stated), the MIC in the assay on Acinetobacter baumannii [5], against Escherichia coli and against Klebsiella pneumoniae was 4 µg/mL (≈ 10.2 µM) each time.
In turn, `O=C(O)c1ccc(-c2nn(-c3ccc(C(=O)O)cc3)cc2/C=N/Nc2ccc(Cl)cc2)cc1` gave an MIC against Acinetobacter baumannii [5] of 0.79 µg/mL (≈ 1.71 µM).
For the compound `Cc1cc(=O)n(C)c2c3c4c(cc12)c(C)cc(=O)n4C(CN)CO3` (configuration not stated), the results for the minimum inhibitory concentration (MIC) in the assay with Acinetobacter baumannii [5], with Staphylococcus aureus [14] and in the assay on Escherichia coli were 2 µg/mL (≈ 6.15 µM), 0.03 µg/mL (≈ 0.0922 µM) and 0.5 µg/mL (≈ 1.54 µM), respectively.
For `NCC[C@H](O)C(=O)N[C@@H]1C[C@H](N)[C@@H](O[C@H]2O[C@H](CN)[C@@H](O)[C@H](O)[C@H]2O)[C@H](O)[C@H]1O[C@H]1O[C@H](CO)[C@@H](O)[C@H](N)[C@H]1O` [AMIKACIN], the Activity with Acinetobacter baumannii [15] turned out to be 46.2%.
The compound `C[C@@H](O)[C@H]1C(=O)N2C(C(=O)O)=C(SCCNC=N)C[C@H]12` [IMIPENEM ANHYDROUS] yielded an MIC with Acinetobacter baumannii [5] of over 8 µg/mL.
THIMEROSAL: in the assay with Acinetobacter baumannii [13], the MIC was determined as 1 µg/mL.
`CC(CN1c2ccccc2Sc2ccccc21)N(C)C` (configuration not stated) [PROMETHAZINE]: the MIC in the assay on Acinetobacter baumannii [10] and in the assay with Acinetobacter baumannii [11] was 100 µg/mL (≈ 352 µM) throughout. Besides, in the assay with Acinetobacter baumannii [12], the MBEC amounted to 0.3 g/L.
Turning to `CO[C@@]12[C@H](COC(N)=O)C3=C(C(=O)C(C)=C(N)C3=O)N1C[C@@H]1N[C@@H]12` [MITOMYCIN], the minimal inhibitory concentration (MIC) with Acinetobacter baumannii [16] was at most 8 µg/mL.
`CNc1nc(NCc2ccccc2)nc2ccc(C)cc12`: the minimum inhibitory concentration (MIC) in the assay on Acinetobacter baumannii [17] amounted to 1 µM.
In the case of `Cc1c(Cl)sn(-c2ccc(Cl)cc2)c1=O`, the MIC with Acinetobacter baumannii [13] was 0.25 µg/mL (≈ 0.961 µM).
With `CC(C)(C)n1cc(C(=O)O)c(=O)c2cc(F)c(Cl)nc21`, the 50% inhibitory concentration (IC50) in the assay with Acinetobacter baumannii [3] was under 2000 nM.
On the same count and under the same terms, with `O=c1[nH]c(=O)n(C2OC(CO)c3ccccc32)cc1F` (configuration not stated) the figure was under 2000 nM.
In the case of `CSc1ccc2c(c1)N(CCC1CCCCN1C)c1ccccc1S2` (configuration not stated) [THIORIDAZINE], the minimal inhibitory concentration (MIC) with Acinetobacter baumannii [10] and in the assay with Acinetobacter baumannii [11] was 100 µg/mL (≈ 270 µM) in each case. Further, the MBEC in the assay on Acinetobacter baumannii [12] worked out at 0.3 g/L.
In the case of `CN(C)c1cc(NC(=O)CNC(C)(C)C)c(O)c2c1C[C@H]1C[C@H]3[C@H](N(C)C)C(O)=C(C(N)=O)C(=O)[C@@]3(O)C(O)=C1C2=O` [TIGECYCLINE], in the assay with Acinetobacter baumannii [5], it took 0.5 µg/mL (≈ 0.854 µM) to inhibit growth (MIC). Moreover, in the assay with Acinetobacter baumannii [1], the IC50 was 150 nM.
In the assay on Acinetobacter baumannii [5], `O=[N+]([O-])c1ccc(O)c(/C=N/Nc2ccccn2)c1` came in with an MIC of 25 µg/mL (≈ 96.8 µM).
As for `Cc1c(N2C[C@H](N)C3(CC3)C2)c(F)cn2c(=O)c(C(=O)O)cc(C3CC3)c12`, in the assay with Acinetobacter baumannii [9], the MIC worked out at 0.19 µg/mL (≈ 0.512 µM).
Regarding `Cc1c(N2C[C@H](C)N[C@@H](C)C2)c(F)cn2c(=O)c(C(=O)O)cc(C3CC3)c12`, the minimum inhibitory concentration (MIC) in the assay with Acinetobacter baumannii [8] is 0.31 µM (≈ 0.116 µg/mL).
For `Brc1ccc2[nH]c(-c3ccncc3)cc2c1`, in the assay with Acinetobacter baumannii [9], the MIC is under 2 µg/mL.
Compound `COCCCNc1cc2nc(NC(=O)c3[nH]c(C)c(Cl)c3Cl)sc2cc1C(=O)O` yielded an MIC in the assay with Acinetobacter baumannii [5] of 4 µg/mL (≈ 8.75 µM).
Consider `Cc1cc(=O)n(C)c2c3c4c(cc12)c(C)cc(=O)n4CCO3`, for which the MIC is over 32 µg/mL against Acinetobacter baumannii [5], 0.06 µg/mL (≈ 0.202 µM) in the assay with Staphylococcus aureus [14] and over 32 µg/mL with Escherichia coli.

What is called IC50 is the midpoint of a concentration-inhibition curve. In general, MBC refers to the smallest concentration meeting the test's criterion for killing. For orientation: MIC means the least concentration at which growth counts as inhibited.
